According to patent US5756521A, “Chroman-2-ylmethylamino derivatives” (American Home Products Corporation, priority 1997, dated 1998):

How the values were obtained:
dopamine D-2 receptor = target: T1, dopamine D-2 receptor (Rattus norvegicus, UniProt P61169); assay: Dopamine D-2 receptor affinity, 3H-spiroperidol binding in homogenized limbic brain tissue
T1 construct: homogenized limbic brain tissue; from tissue
Description: High affinity for the dopamine D-2 receptor was established by the standard experimental test procedure of Fields, et al., Brain Res., 136, 578 (1977) and Yamamura et al., eds., Neurotransmitter Receptor Binding, Raven Press, N.Y. (1978) wherein homogenized limbic brain tissue is incubated with ^3 H-spiroperidol (Spiper.) and various concentrations of test compound, filtered and washed and shaken with Hydrofluor scintillation cocktail (National Diagnostics) and counted in a Packard 460 CD scintillation counter.

[1] = target: T2, dopamine autoreceptor (D2, 3H-quinpirole) (Rattus norvegicus, UniProt P61169); assay: Dopamine autoreceptor affinity, 3H-quinpirole binding in homogenized rat striatal brain tissue; conditions: rat striatal brain tissue homogenate, read-out: IC50 (nM), D2, (Quin.)
T2 construct: homogenized rat striatal brain tissue; from tissue; host or cells: rat striatal brain tissue
T2 sequence (P61169 whole entry): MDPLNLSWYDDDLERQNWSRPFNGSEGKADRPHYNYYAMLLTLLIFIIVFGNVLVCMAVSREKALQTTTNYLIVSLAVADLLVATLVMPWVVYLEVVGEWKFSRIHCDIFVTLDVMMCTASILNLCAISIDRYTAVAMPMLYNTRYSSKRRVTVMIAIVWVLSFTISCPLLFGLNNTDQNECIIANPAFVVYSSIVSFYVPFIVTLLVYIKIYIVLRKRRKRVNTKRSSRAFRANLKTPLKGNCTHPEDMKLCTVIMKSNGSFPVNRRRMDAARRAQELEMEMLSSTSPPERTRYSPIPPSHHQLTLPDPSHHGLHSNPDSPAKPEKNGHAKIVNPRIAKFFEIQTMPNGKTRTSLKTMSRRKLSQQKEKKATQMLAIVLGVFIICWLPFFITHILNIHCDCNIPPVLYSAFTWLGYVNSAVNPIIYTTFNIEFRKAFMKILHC
Description: Affinity for the dopamine autoreceptor was established by a modification of the standard experimental test procedure of Seemen and Schaus, European Journal of Pharmacology 203: 105-109, 1991, wherein homogenized rat striatal brain tissue is incubated with ^3 H-quinpirole (Quin.) and various concentrations of test compound, filtered and washed and counted in a Betaplate scintillation counter.

T1 sequence (P61169 whole entry): as above

Which results are given for Oc1ccc2c(c1)OC(CNCc1ccccn1)CC2 (stereo not drawn) [Example 1]?
IC50 (dopamine D-2 receptor; 3H-spiroperidol, limbic brain tissue homogenate, read-out: IC50 (nM), (Spiper.)): 1230 nM; ratio (dopamine D-2 receptor; ratio of IC50 (Spiper.) to IC50 (Quin.), LowAg/HighAg): 557; IC50 [1]: 2.21 nM
